Consider one compound from article PMC12706794, “Identification and Characterization of a Small-Molecule Inhibitor of the Pseudomonas aeruginosa SOS Response” (ACS Infectious Diseases, 2025).

Broadly, the Kd is a measure of binding affinity in units of concentration.

This assay concerns the target T1, RecAPa (Pseudomonas aeruginosa, UniProt P08280).
T1 construct: made in house; host or cells: E. coli BL21(DE3)
In words: Isothermal titration calorimetry on RecAPa. In kind it is binding, P. aeruginosa. How it is done: To investigate deeper the binding of A12 to the two members of the P. aeruginosa SOS complex, ITC was performed on RecAPa and LexAPa ^S125A (Figure D,E). The integrated binding isotherms of both proteins were best fitted by a “one set of sites” model.
64 μM RecAPa and 58.5 μM LexAPa ^S125A were titrated with the selected compound (2.5 mM solution) using a Microcal PEAQ-ITC instrument (Malvern Panalytical) at 25 °C with a stirring rate of 750 rpm. Proteins and the ligand were dissolved in ITC Buffer (20 mM Tris–HCl, 150 mM NaCl, 5% v/v DMSO, pH 7.5). An initial 0.4 μL injection (excluded from data analysis) was followed by 24 injections of 1.5 μL with a spacing of 150 s between each addition. Blank experiments were performed by injecting the titrant compound in a protein-devoid ITC Buffer. Blank curves were subtracted from all of the experiments. Data were analyzed by using the MicroCal PEAQ-ITC Evaluation software (Malvern Panalytical). Integrated heat signals were fitted by a “one set of sites” binding model to obtain enthalpy changes (ΔH), dissociation constants (K D), and stoichiometry of binding.
A general note: Isothermal titration calorimetry measures the heat released or taken up as one component is titrated into another.

T1 sequence (P08280 whole entry): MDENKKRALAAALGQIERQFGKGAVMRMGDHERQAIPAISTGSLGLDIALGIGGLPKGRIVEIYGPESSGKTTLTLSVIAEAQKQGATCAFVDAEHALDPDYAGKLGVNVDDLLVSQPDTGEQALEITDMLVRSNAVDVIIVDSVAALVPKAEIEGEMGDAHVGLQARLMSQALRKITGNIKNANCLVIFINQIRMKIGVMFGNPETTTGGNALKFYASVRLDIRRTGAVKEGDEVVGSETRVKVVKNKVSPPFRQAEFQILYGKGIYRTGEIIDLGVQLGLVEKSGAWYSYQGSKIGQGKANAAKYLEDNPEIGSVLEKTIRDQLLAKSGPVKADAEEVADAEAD

`O=C(O)CCNc1ccccc1S` [A12, 3-(2-sulfanylanilino)propanoic acid] returned a Kd of 18 ± 3 µM.
